Experimental data published in patent US20170190671A1, “BIS(ARYL)CATECHOL DERIVATIVES AS HERBICIDES” (E I DU PONT DE NEMOURS AND COMPANY, priority 2014, published 2017).

What was measured:
Assay in all cases: Test C postemergence
Assay type in all cases: in vivo
[1] = system: lambsquarters (Chenopodium album); conditions: scale 0 to 100
[2] = system: large (Lg) crabgrass (Digitaria sanguinalis); conditions: scale 0 to 100
[3] = system: pigweed (Amaranthus retroflexus); conditions: scale 0 to 100
[4] = system: corn (Zea mays); conditions: scale 0 to 100
[5] = system: soybean (Glycine max); conditions: scale 0 to 100
[6] = system: giant foxtail (Setaria faberii); conditions: scale 0 to 100
[7] = system: oilseed rape (Brassica napus); conditions: scale 0 to 100
[8] = system: morningglory (Ipomoea coccinea); conditions: scale 0 to 100
[9] = system: blackgrass (Alopecurus myosuroides); conditions: scale 0 to 100
[10] = system: johnsongrass (Sorghum halepense); conditions: scale 0 to 100
[11] = system: galium (catchweed bedstraw, Galium aparine); conditions: scale 0 to 100
[12] = system: winter wheat (Triticum aestivum); conditions: scale 0 to 100
[13] = system: ragweed (common ragweed, Ambrosia elatior); conditions: scale 0 to 100
[14] = system: barnyardgrass (Echinochloa crus-galli)
[15] = system: velvetleaf (Abutilon theophrasti); conditions: scale 0 to 100
[16] = system: Italian ryegrass (Lolium multiflorum); conditions: scale 0 to 100
[17] = system: chickweed (common chickweed, Stellaria media); conditions: scale 0 to 100
[18] = system: yellow nutsedge (Cyperus esculentus); conditions: scale 0 to 100

`Fc1ccc(F)c(Oc2ncc(C(F)(F)F)cn2)c1Oc1ncc(Cl)cn1` [Compound 25] was tested, and the “Plant response rating, Lambsquarters” value ([1]; 8 g ai/ha, postemergence) was 60, the “Plant response rating, Lambsquarters” value ([1]; Postemergence, 16 g ai/ha) was 80 and the “Plant response rating, Lambsquarters” value ([1]; Postemergence, 31 g ai/ha) was 80. For the same compound, the “Plant response rating, Lambsquarters” value ([1]; Postemergence, 62 g ai/ha) was 75, the “Plant response rating, Crabgrass, Large” value ([2]; 8 g ai/ha, postemergence) was 0 and the “Plant response rating, Crabgrass, Large” value ([2]; Postemergence, 16 g ai/ha) was 0. For the same compound, the “Plant response rating, Crabgrass, Large” value ([2]; Postemergence, 31 g ai/ha) was 0, the “Plant response rating, Crabgrass, Large” value ([2]; Postemergence, 62 g ai/ha) was 5 and the “Plant response rating, Pigweed” value ([3]; 8 g ai/ha, postemergence) was 75. For the same compound, the “Plant response rating, Pigweed” value ([3]; Postemergence, 31 g ai/ha) was 85, the “Plant response rating, Pigweed” value ([3]; Postemergence, 62 g ai/ha) was 95 and the “Plant response rating, Corn” value ([4]; 8 g ai/ha, postemergence) was 5. The “Plant response rating, Corn” value ([4]; Postemergence, 16 g ai/ha) was 5, the “Plant response rating, Corn” value ([4]; Postemergence, 31 g ai/ha) was 5 and the “Plant response rating, Corn” value ([4]; Postemergence, 62 g ai/ha) was 5. For the same compound, the “Plant response rating, Soybean” value ([5]; 8 g ai/ha, postemergence) was 30, the “Plant response rating, Soybean” value ([5]; Postemergence, 31 g ai/ha) was 50 and the “Plant response rating, Soybean” value ([5]; Postemergence, 62 g ai/ha) was 45. For the same compound, the “Plant response rating, Foxtail, Giant” value ([6]; 8 g ai/ha, postemergence) was 0, the “Plant response rating, Foxtail, Giant” value ([6]; Postemergence, 16 g ai/ha) was 0 and the “Plant response rating, Foxtail, Giant” value ([6]; Postemergence, 31 g ai/ha) was 0. For the same compound, the “Plant response rating, Foxtail, Giant” value ([6]; Postemergence, 62 g ai/ha) was 5, the “Plant response rating, Oilseed Rape” value ([7]; 8 g ai/ha, postemergence) was 30 and the “Plant response rating, Oilseed Rape” value ([7]; Postemergence, 31 g ai/ha) was 50. The “Plant response rating, Oilseed Rape” value ([7]; Postemergence, 62 g ai/ha) was 45, the “Plant response rating, Morningglory” value ([8]; 8 g ai/ha, postemergence) was 20 and the “Plant response rating, Morningglory” value ([8]; Postemergence, 31 g ai/ha) was 10. The “Plant response rating, Morningglory” value ([8]; Postemergence, 62 g ai/ha) was 15, the “Plant response rating, Blackgrass” value ([9]; 8 g ai/ha, postemergence) was 0 and the “Plant response rating, Blackgrass” value ([9]; Postemergence, 16 g ai/ha) was 0. For the same compound, the “Plant response rating, Blackgrass” value ([9]; Postemergence, 31 g ai/ha) was 5, the “Plant response rating, Blackgrass” value ([9]; Postemergence, 62 g ai/ha) was 5 and the “Plant response rating, Johnsongrass” value ([10]; 8 g ai/ha, postemergence) was 0. For the same compound, the “Plant response rating, Johnsongrass” value ([10]; Postemergence, 16 g ai/ha) was 5, the “Plant response rating, Johnsongrass” value ([10]; Postemergence, 31 g ai/ha) was 5 and the “Plant response rating, Johnsongrass” value ([10]; Postemergence, 62 g ai/ha) was 5. For the same compound, the “Plant response rating, Galium” value ([11]; 8 g ai/ha, postemergence) was 50, the “Plant response rating, Galium” value ([11]; Postemergence, 16 g ai/ha) was 55 and the “Plant response rating, Galium” value ([11]; Postemergence, 31 g ai/ha) was 80. For the same compound, the “Plant response rating, Galium” value ([11]; Postemergence, 62 g ai/ha) was 80, the “Plant response rating, Wheat” value ([12]; 8 g ai/ha, postemergence) was 0 and the “Plant response rating, Wheat” value ([12]; Postemergence, 31 g ai/ha) was 0. For the same compound, the “Plant response rating, Wheat” value ([12]; Postemergence, 62 g ai/ha) was 0, the “Plant response rating, Ragweed” value ([13]; 8 g ai/ha, postemergence) was 0 and the “Plant response rating, Ragweed” value ([13]; Postemergence, 31 g ai/ha) was 10. For the same compound, the “Plant response rating, Ragweed” value ([13]; Postemergence, 62 g ai/ha) was 25, the “Plant response rating, Barnyardgrass” value ([14]; 8 g ai/ha, postemergence, scale 0 to 100 (0 no effect, 100 complete control)) was 5 and the “Plant response rating, Barnyardgrass” value ([14]; Postemergence, 16 g ai/ha, scale 0 to 100) was 5. For the same compound, the “Plant response rating, Barnyardgrass” value ([14]; Postemergence, 31 g ai/ha, scale 0 to 100) was 5, the “Plant response rating, Barnyardgrass” value ([14]; Postemergence, 62 g ai/ha, scale 0 to 100) was 10 and the “Plant response rating, Velvetleaf” value ([15]; 8 g ai/ha, postemergence) was 30. For the same compound, the “Plant response rating, Velvetleaf” value ([15]; Postemergence, 31 g ai/ha) was 60, the “Plant response rating, Velvetleaf” value ([15]; Postemergence, 62 g ai/ha) was 30 and the “Plant response rating, Ryegrass, Italian” value ([16]; 8 g ai/ha, postemergence) was 0. For the same compound, the “Plant response rating, Ryegrass, Italian” value ([16]; Postemergence, 31 g ai/ha) was 5, the “Plant response rating, Ryegrass, Italian” value ([16]; Postemergence, 62 g ai/ha) was 5 and the “Plant response rating, Chickweed” value ([17]; 8 g ai/ha, postemergence) was 0. For the same compound, the “Plant response rating, Chickweed” value ([17]; Postemergence, 16 g ai/ha) was 20, the “Plant response rating, Chickweed” value ([17]; Postemergence, 31 g ai/ha) was 50 and the “Plant response rating, Chickweed” value ([17]; Postemergence, 62 g ai/ha) was 60. The “Plant response rating, Nutsedge, Yellow” value ([18]; 8 g ai/ha, postemergence) was 0, the “Plant response rating, Nutsedge, Yellow” value ([18]; Postemergence, 31 g ai/ha) was 5 and the “Plant response rating, Nutsedge, Yellow” value ([18]; Postemergence, 62 g ai/ha) was 10.
